Reference: the supplement of paper PMC10307832

Columns and labels:
Experiment in all cases: relative viability (nuclei count vs DMSO), 5 days (fraction); higher = more cells survive
A-427 = test system: A-427
Procedure, shortened: (§1)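 Medians of duplicate plates are given as relative viability. That measure is the nuclei count in treated wells divided by the count in vehicle wells. Counts were taken on 4× images of lung cancer cell lines in 1536-well plates, 5 days after pin-tool dosing the day after seeding with one drug alone or a fixed anchor-drug dose plus five library-drug doses (not always all listed) in √10 steps.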

CAL-12T = test system: CAL-12T
Procedure, shortened: as §1

COR-L 105 = test system: COR-L 105
Procedure, shortened: as §1

EMC-BAC-2 = test system: EMC-BAC-2
Procedure, shortened: as §1

HARA = test system: HARA
Procedure, shortened: as §1

HCC-366 = test system: HCC-366
Procedure, shortened: as §1

HCC-827 = test system: HCC-827
Procedure, shortened: as §1

HOP-62 = test system: HOP-62
Procedure, shortened: as §1

LCLC-103H = test system: LCLC-103H
Procedure, shortened: as §1

NCI-H1395 = test system: NCI-H1395
Procedure, shortened: as §1

NCI-H1437 = test system: NCI-H1437
Procedure, shortened: as §1

NCI-H1755 = test system: NCI-H1755
Procedure, shortened: as §1

NCI-H1792 = test system: NCI-H1792
Procedure, shortened: as §1

NCI-H1915 = test system: NCI-H1915
Procedure, shortened: as §1

NCI-H2009 = test system: NCI-H2009
Procedure, shortened: as §1

NCI-H2228 = test system: NCI-H2228
Procedure, shortened: as §1

NCI-H23 = test system: NCI-H23
Procedure, shortened: as §1

NCI-H460 = test system: NCI-H460
Procedure, shortened: as §1

NCI-H522 = test system: NCI-H522
Procedure, shortened: as §1

NCI-H727 = test system: NCI-H727
Procedure, shortened: as §1

SK-LU-1 = test system: SK-LU-1
Procedure, shortened: as §1

SW 1573 = test system: SW 1573
Procedure, shortened: as §1

Compound `Cc1sc2c(c1C)C(c1ccc(Cl)cc1)=N[C@@H](CC(=O)OC(C)(C)C)c1nnc(C)n1-2` [JQ1] + CC(=O)Nc1cccc(-n2c(=O)n(C3CC3)c(=O)c3c(Nc4ccc(I)cc4F)n(C)c(=O)c(C)c32)c1 [Trametinib] (partner 0.02 µM) has a relative viability (A-427; first compound 0.04 µM) of 0.759, a relative viability (A-427; first compound 0.1265 µM) of 0.843 and a relative viability (A-427; first compound 0.4 µM) of 0.674. For the same compound, the relative viability (A-427; first compound 1.265 µM) was 0.466, the relative viability (A-427; first compound 4 µM) was 0.52 and the relative viability (CAL-12T; first compound 0.04 µM) was 0.354. For the same compound, the relative viability (CAL-12T; first compound 0.1265 µM) was 0.29, the relative viability (CAL-12T; first compound 0.4 µM) was 0.207 and the relative viability (CAL-12T; first compound 1.265 µM) was 0.193. It also gave a relative viability (CAL-12T; first compound 4 µM) of 0.208, a relative viability (COR-L 105; first compound 0.04 µM) of 0.46 and a relative viability (COR-L 105; first compound 0.1265 µM) of 0.362. The relative viability (COR-L 105; first compound 0.4 µM) was 0.377, the relative viability (COR-L 105; first compound 1.265 µM) was 0.355 and the relative viability (COR-L 105; first compound 4 µM) was 0.357. For the same compound, the relative viability (EMC-BAC-2; first compound 0.04 µM) was 0.935, the relative viability (EMC-BAC-2; first compound 0.4 µM) was 0.881 and the relative viability (EMC-BAC-2; first compound 1.265 µM) was 0.586. For the same compound, the relative viability (EMC-BAC-2; first compound 4 µM) was 0.366, the relative viability (HARA; first compound 0.04 µM) was 0.72 and the relative viability (HARA; first compound 0.1265 µM) was 0.411. The relative viability (HARA; first compound 0.4 µM) was 0.174, the relative viability (HARA; first compound 1.265 µM) was 0.184 and the relative viability (HARA; first compound 4 µM) was 0.304. For the same compound, the relative viability (HCC-366; first compound 0.04 µM) was 0.407, the relative viability (HCC-366; first compound 0.4 µM) was 0.372 and the relative viability (HCC-366; first compound 1.265 µM) was 0.235. The relative viability (HCC-366; first compound 4 µM) was 0.237, the relative viability (HCC-827; first compound 0.04 µM) was 0.562 and the relative viability (HCC-827; first compound 0.1265 µM) was 0.519. It also gave a relative viability (HCC-827; first compound 1.265 µM) of 0.543, a relative viability (HCC-827; first compound 4 µM) of 0.474 and a relative viability (HOP-62; first compound 0.04 µM) of 0.307. It also gave a relative viability (HOP-62; first compound 0.1265 µM) of 0.262, a relative viability (HOP-62; first compound 0.4 µM) of 0.156 and a relative viability (HOP-62; first compound 1.265 µM) of 0.119. It also gave a relative viability (HOP-62; first compound 4 µM) of 0.106, a relative viability (LCLC-103H; first compound 0.04 µM) of 0.642 and a relative viability (LCLC-103H; first compound 0.1265 µM) of 0.613. For the same compound, the relative viability (LCLC-103H; first compound 0.4 µM) was 0.534, the relative viability (LCLC-103H; first compound 1.265 µM) was 0.477 and the relative viability (LCLC-103H; first compound 4 µM) was 0.426. It also gave a relative viability (NCI-H1395; first compound 0.04 µM) of 1.03, a relative viability (NCI-H1395; first compound 0.1265 µM) of 0.991 and a relative viability (NCI-H1395; first compound 0.4 µM) of 0.912. The relative viability (NCI-H1395; first compound 1.265 µM) was 0.628, the relative viability (NCI-H1395; first compound 4 µM) was 0.578 and the relative viability (NCI-H1437; first compound 0.04 µM) was 0.443. It also gave a relative viability (NCI-H1437; first compound 0.1265 µM) of 0.519, a relative viability (NCI-H1437; first compound 0.4 µM) of 0.344 and a relative viability (NCI-H1437; first compound 1.265 µM) of 0.35. It also gave a relative viability (NCI-H1437; first compound 4 µM) of 0.26, a relative viability (NCI-H1755; first compound 0.04 µM) of 0.796 and a relative viability (NCI-H1755; first compound 0.1265 µM) of 0.809. It also gave a relative viability (NCI-H1755; first compound 0.4 µM) of 0.8, a relative viability (NCI-H1755; first compound 1.265 µM) of 0.674 and a relative viability (NCI-H1755; first compound 4 µM) of 0.65. For the same compound, the relative viability (NCI-H1792; first compound 0.04 µM) was 0.345, the relative viability (NCI-H1792; first compound 0.1265 µM) was 0.421 and the relative viability (NCI-H1792; first compound 0.4 µM) was 0.286. It also gave a relative viability (NCI-H1792; first compound 1.265 µM) of 0.191, a relative viability (NCI-H1792; first compound 4 µM) of 0.186 and a relative viability (NCI-H1915; first compound 0.04 µM) of 0.281. It also gave a relative viability (NCI-H1915; first compound 0.4 µM) of 0.317, a relative viability (NCI-H1915; first compound 1.265 µM) of 0.237 and a relative viability (NCI-H1915; first compound 4 µM) of 0.2. The relative viability (NCI-H2009; first compound 0.04 µM) was 0.234, the relative viability (NCI-H2009; first compound 0.1265 µM) was 0.197 and the relative viability (NCI-H2009; first compound 0.4 µM) was 0.173. The relative viability (NCI-H2009; first compound 1.265 µM) was 0.15, the relative viability (NCI-H2009; first compound 4 µM) was 0.135 and the relative viability (NCI-H2228; first compound 0.04 µM) was 0.483. It also gave a relative viability (NCI-H2228; first compound 0.1265 µM) of 0.396, a relative viability (NCI-H2228; first compound 0.4 µM) of 0.424 and a relative viability (NCI-H2228; first compound 1.265 µM) of 0.276. For the same compound, the relative viability (NCI-H2228; first compound 4 µM) was 0.181, the relative viability (NCI-H23; first compound 0.04 µM) was 0.348 and the relative viability (NCI-H23; first compound 0.1265 µM) was 0.268. The relative viability (NCI-H23; first compound 0.4 µM) was 0.256, the relative viability (NCI-H23; first compound 1.265 µM) was 0.201 and the relative viability (NCI-H23; first compound 4 µM) was 0.173. For the same compound, the relative viability (NCI-H460; first compound 0.04 µM) was 0.129, the relative viability (NCI-H460; first compound 0.1265 µM) was 0.0734 and the relative viability (NCI-H460; first compound 0.4 µM) was 0.0575. The relative viability (NCI-H460; first compound 1.265 µM) was 0.0314, the relative viability (NCI-H460; first compound 4 µM) was 0.0297 and the relative viability (NCI-H522; first compound 0.04 µM) was 0.767. It also gave a relative viability (NCI-H522; first compound 0.1265 µM) of 0.631, a relative viability (NCI-H522; first compound 0.4 µM) of 0.485 and a relative viability (NCI-H522; first compound 1.265 µM) of 0.482. It also gave a relative viability (NCI-H522; first compound 4 µM) of 0.447, a relative viability (NCI-H727; first compound 0.04 µM) of 0.403 and a relative viability (NCI-H727; first compound 0.1265 µM) of 0.421. It also gave a relative viability (NCI-H727; first compound 0.4 µM) of 0.381, a relative viability (NCI-H727; first compound 1.265 µM) of 0.365 and a relative viability (NCI-H727; first compound 4 µM) of 0.401. It also gave a relative viability (SK-LU-1; first compound 0.04 µM) of 0.509, a relative viability (SK-LU-1; first compound 0.1265 µM) of 0.444 and a relative viability (SK-LU-1; first compound 0.4 µM) of 0.434. For the same compound, the relative viability (SK-LU-1; first compound 1.265 µM) was 0.359, the relative viability (SK-LU-1; first compound 4 µM) was 0.195 and the relative viability (SW 1573; first compound 0.04 µM) was 0.422. The relative viability (SW 1573; first compound 0.1265 µM) was 0.357, the relative viability (SW 1573; first compound 0.4 µM) was 0.277 and the relative viability (SW 1573; first compound 1.265 µM) was 0.189. For the same compound, the relative viability (SW 1573; first compound 4 µM) was 0.187.
